Data from patent US4278681A, “Antibacterial amide compounds and means for using the same” (Warner-Lambert Co., priority 1980, dated 1981).
In brackets after ≈: the same amount, converted by molar mass.

Columns and labels:
Experiment in all cases: Minimal Inhibitory Concentration by Microtitration, dilution in TSB
Format in all cases: cell-based
[1] = tested on: Enterobacter cloacae IMM-11; conditions: IMM11, TSB (Trypticase soy broth)
From the text: (§1) Minimal Inhibitory Concentration by Microtitration (μg/ml)
(§2) Dilution in TSB (Trypticase soy broth).

[2] = tested on: Klebsiella pneumoniae MGH-2; conditions: MGH2, TSB (Trypticase soy broth)
From the text: as §1, §2

[3] = tested on: Serratia marcescens IMM-16; conditions: IMM16, TSB (Trypticase soy broth)
From the text: as §1, §2

[4] = tested on: Pseudomonas aeruginosa BRK 12-4-4; conditions: BRK1244, TSB (Trypticase soy broth)
From the text: as §1, §2

[5] = tested on: Pseudomonas aeruginosa UI-18; conditions: UI18, TSB (Trypticase soy broth)
From the text: as §1, §2

Structure (SMILES)	MIC [1] [mg/L]	MIC [2] [mg/L]	MIC [3] [mg/L]	MIC [4] [mg/L]	MIC [5] [mg/L]
CC(=O)N[C@@H](C)C(=O)Nc1ccc(-c2ccc(C(=O)N[C@@H](C(=O)N[C@@H]3C(=O)N4[C@@H]3SC(C)(C)[C@@H]4C(=O)O)c3ccc(O)cc3)c(=O)[nH]2)cc1	1.6 (≈ 2.32 µM)	3.1 (≈ 4.49 µM)	3.1 (≈ 4.49 µM)	1.6 (≈ 2.32 µM)	0.8 (≈ 1.16 µM)
CC(=O)NCCCC(=O)Nc1ccc(-c2ccc(C(=O)N[C@@H](C(=O)N[C@@H]3C(=O)N4[C@@H]3SC(C)(C)[C@@H]4C(=O)O)c3ccc(O)cc3)c(=O)[nH]2)cc1	6.3 (≈ 8.94 µM)	3.1 (≈ 4.4 µM)	3.1 (≈ 4.4 µM)	3.1 (≈ 4.4 µM)	1.6 (≈ 2.27 µM)
CC(=O)N1CCC[C@H]1C(=O)Nc1ccc(-c2ccc(C(=O)N[C@@H](C(=O)N[C@@H]3C(=O)N4[C@@H]3SC(C)(C)[C@@H]4C(=O)O)c3ccc(O)cc3)c(=O)[nH]2)cc1	6.3 (≈ 8.79 µM)	12.5 (≈ 17.4 µM)	6.3 (≈ 8.79 µM)	1.6 (≈ 2.23 µM)	1.6 (≈ 2.23 µM)
CC(=O)N[C@@H](CCC(N)=O)C(=O)Nc1ccc(-c2ccc(C(=O)N[C@@H](C(=O)N[C@@H]3C(=O)N4[C@@H]3SC(C)(C)[C@@H]4C(=O)O)c3ccc(O)cc3)c(=O)[nH]2)cc1	3.1 (≈ 4.15 µM)	12.5 (≈ 16.7 µM)	3.1 (≈ 4.15 µM)	3.1 (≈ 4.15 µM)	1.6 (≈ 2.14 µM)
CC(=O)N1CC(O)C[C@H]1C(=O)Nc1ccc(-c2ccc(C(=O)N[C@@H](C(=O)N[C@@H]3C(=O)N4[C@@H]3SC(C)(C)[C@@H]4C(=O)O)c3ccc(O)cc3)c(=O)[nH]2)cc1 (some centres unmarked)	3.1 (≈ 4.23 µM)	12.5 (≈ 17.1 µM)	6.3 (≈ 8.6 µM)	3.1 (≈ 4.23 µM)	1.6 (≈ 2.18 µM)
C[C@H](NC=O)C(=O)Nc1ccc(-c2ccc(C(=O)N[C@@H](C(=O)N[C@@H]3C(=O)N4[C@@H]3SC(C)(C)[C@@H]4C(=O)O)c3ccc(O)cc3)c(=O)[nH]2)cc1	3.1 (≈ 4.58 µM)	6.3 (≈ 9.31 µM)	3.1 (≈ 4.58 µM)	1.6 (≈ 2.36 µM)	1.6 (≈ 2.36 µM)
CC(=O)N[C@@H](C)C(=O)N[C@@H](C)C(=O)Nc1ccc(-c2ccc(C(=O)N[C@@H](C(=O)N[C@@H]3C(=O)N4[C@@H]3SC(C)(C)[C@@H]4C(=O)O)c3ccc(O)cc3)c(=O)[nH]2)cc1	12.5 (≈ 16.4 µM)	25 (≈ 32.8 µM)	6.3 (≈ 8.27 µM)	6.3 (≈ 8.27 µM)	3.1 (≈ 4.07 µM)
CC1(C)S[C@@H]2[C@H](NC(=O)[C@H](NC(=O)c3ccc(-c4ccc(NC(=O)[C@@H]5CCC(=O)N5)cc4)[nH]c3=O)c3ccc(O)cc3)C(=O)N2[C@H]1C(=O)O	1.6 (≈ 2.32 µM)	6.3 (≈ 9.15 µM)	3.1 (≈ 4.5 µM)	1.6 (≈ 2.32 µM)	3.1 (≈ 4.5 µM)
C[C@H](NC(N)=O)C(=O)Nc1ccc(-c2ccc(C(=O)N[C@@H](C(=O)N[C@@H]3C(=O)N4[C@@H]3SC(C)(C)[C@@H]4C(=O)O)c3ccc(O)cc3)c(=O)[nH]2)cc1	6.3 (≈ 9.11 µM)	6.3 (≈ 9.11 µM)	3.1 (≈ 4.48 µM)	1.6 (≈ 2.31 µM)	1.6 (≈ 2.31 µM)
CC(=O)OC1C[C@@H](C(=O)Nc2ccc(-c3ccc(C(=O)N[C@@H](C(=O)N[C@@H]4C(=O)N5[C@@H]4SC(C)(C)[C@@H]5C(=O)O)c4ccc(O)cc4)c(=O)[nH]3)cc2)N(C(C)=O)C1 (some centres unmarked)	6.3 (≈ 8.13 µM)	12.5 (≈ 16.1 µM)	6.3 (≈ 8.13 µM)	1.6 (≈ 2.07 µM)	1.6 (≈ 2.07 µM)
CC(=O)N1CC(=O)C[C@H]1C(=O)Nc1ccc(-c2ccc(C(=O)N[C@@H](C(=O)N[C@@H]3C(=O)N4[C@@H]3SC(C)(C)[C@@H]4C(=O)O)c3ccc(O)cc3)c(=O)[nH]2)cc1	12.5 (≈ 17.1 µM)	25 (≈ 34.2 µM)	12.5 (≈ 17.1 µM)	6.3 (≈ 8.62 µM)	3.1 (≈ 4.24 µM)
CC(=O)O[C@@H]1C[C@H](C(=O)Nc2ccc(-c3ccc(C(=O)N[C@@H](C(=O)N[C@@H]4C(=O)N5[C@@H]4SC(C)(C)[C@@H]5C(=O)O)c4ccc(O)cc4)c(=O)[nH]3)cc2)N(C(C)=O)C1	12.5 (≈ 16.1 µM)	25 (≈ 32.3 µM)	12.5 (≈ 16.1 µM)	6.3 (≈ 8.13 µM)	3.1 (≈ 4 µM)
COC1C[C@@H](C(=O)Nc2ccc(-c3ccc(C(=O)N[C@@H](C(=O)N[C@@H]4C(=O)N5[C@@H]4SC(C)(C)[C@@H]5C(=O)O)c4ccc(O)cc4)c(=O)[nH]3)cc2)N(C(C)=O)C1 (some centres unmarked)	12.5 (≈ 16.7 µM)	25 (≈ 33.5 µM)	12.5 (≈ 16.7 µM)	6.3 (≈ 8.44 µM)	3.1 (≈ 4.15 µM)
CC(=O)N1CC=CC1C(=O)Nc1ccc(-c2ccc(C(=O)N[C@@H](C(=O)N[C@@H]3C(=O)N4[C@@H]3SC(C)(C)[C@@H]4C(=O)O)c3ccc(O)cc3)c(=O)[nH]2)cc1 (some centres unmarked)	6.3 (≈ 8.81 µM)	12.5 (≈ 17.5 µM)	12.5 (≈ 17.5 µM)	3.1 (≈ 4.34 µM)	3.1 (≈ 4.34 µM)
CC(=O)N1CC(OC=O)C[C@H]1C(=O)Nc1ccc(-c2ccc(C(=O)N[C@@H](C(=O)N[C@@H]3C(=O)N4[C@@H]3SC(C)(C)[C@@H]4C(=O)O)c3ccc(O)cc3)c(=O)[nH]2)cc1 (some centres unmarked)	1.6 (≈ 2.1 µM)	6.3 (≈ 8.28 µM)	6.3 (≈ 8.28 µM)	0.8 (≈ 1.05 µM)	0.8 (≈ 1.05 µM)
CCC(=O)OC1C[C@@H](C(=O)Nc2ccc(-c3ccc(C(=O)N[C@@H](C(=O)N[C@@H]4C(=O)N5[C@@H]4SC(C)(C)[C@@H]5C(=O)O)c4ccc(O)cc4)c(=O)[nH]3)cc2)N(C(C)=O)C1 (some centres unmarked)	6.3 (≈ 7.99 µM)	12.5 (≈ 15.8 µM)	6.3 (≈ 7.99 µM)	3.1 (≈ 3.93 µM)	1.6 (≈ 2.03 µM)
CN1C(=O)CC[C@H]1C(=O)Nc1ccc(-c2ccc(C(=O)N[C@@H](C(=O)N[C@@H]3C(=O)N4[C@@H]3SC(C)(C)[C@@H]4C(=O)O)c3ccc(O)cc3)c(=O)[nH]2)cc1	3.1 (≈ 4.41 µM)	6.3 (≈ 8.96 µM)	6.3 (≈ 8.96 µM)	1.6 (≈ 2.28 µM)	0.8 (≈ 1.14 µM)
CC(=O)NCCCC[C@H](NC(C)=O)C(=O)Nc1ccc(-c2ccc(C(=O)N[C@@H](C(=O)N[C@@H]3C(=O)N4[C@@H]3SC(C)(C)[C@@H]4C(=O)O)c3ccc(O)cc3)c(=O)[nH]2)cc1	12.5 (≈ 15.8 µM)	25 (≈ 31.7 µM)	50 (≈ 63.3 µM)	6.3 (≈ 7.98 µM)	6.3 (≈ 7.98 µM)
CC1(C)S[C@@H]2[C@H](NC(=O)[C@H](NC(=O)c3ccc(-c4ccc(NC(=O)CN5CCCC5=O)cc4)[nH]c3=O)c3ccc(O)cc3)C(=O)N2[C@H]1C(=O)O	3.1 (≈ 4.41 µM)	6.3 (≈ 8.96 µM)	6.3 (≈ 8.96 µM)	3.1 (≈ 4.41 µM)	3.1 (≈ 4.41 µM)
